Data set [1] deals with cortical neurons cultured from wild-type mice. The data set can be described thus: Immunoblotting analysis of various proteins in cultured cortical neurons (U18666A-induced changes). Conditions: for RhoA level (immunoblot) / Ubiquitin level (immunoblot) / p-4EBP1 level (immunoblot) / p-LIMK level (immunoblot) / p-Mdm2 level (immunoblot) / p-p38 level (immunoblot) / p-p53Δ level (immunoblot) / t-p38 level (immunoblot) / t-p53 level (immunoblot): DIV4 cortical neurons from wild-type mice, 5 μM U18666A, inhibitor pre-treatment 1 μM, DMSO = 100, n = 3-6. The class given is cell-based. Here is the method:
(§1) Neuronal cultures. Cortical and hippocampal neurons were prepared from npc1+/+ and npc1−/− embryos at embryonic day 18 (E18); time-pregnant wild-type BALB/c or npc1+/− mice were obtained either from Charles River Laboratories (San Diego, Calif.) or from our breeding colony respectively. Neurons were cultured in NeuroBasal (GIBCO, Carlsbad, Calif.) with 10% bovine serum albumin (BSA), 2% B27, and 1% glutamine for three to four days before being used.
(§2) Treatment. For primary cultured neurons, chemicals (U18666A and inhibitors of various enzymes) were first dissolved in 10% DMSO before being diluted in cultured medium; final DMSO concentration was lower than 0.01%. For in vivo treatment, hydroxyfasudil monohydrochloride (Sigma) was dissolved in double-distilled H2O and injected subcutaneously at 10 mg/kg, twice a day from postnatal day 7 to day 28.
Immunoprecipitation and immunoblotting procedures. For immunoprecipitation, cultured cortical neurons were lysed in lysis buffer [0.05 M Tris base, 0.9% NaCl, pH 7.6, and 0.5% Triton X-100 plus Protease Inhibitors Cocktail (1:100; EMD Biosciences) and phosphatase inhibitor cocktails (1:500; Sigma)]. Lysates were centrifuged at 16,000×g for 30 min at 4° C. Supernatant were then cleared with a mixture of protein A/Gagarose beads (each 50%) for 1 h at 4 uC, and after a brief spin, pellets were discarded. A small portion of the supernatants was used as input. The reminder of the supernatant was immunoprecipitated overnight with control IgG or Tau1 antibodies. Immunoprecipitates were captured by incubation with protein A/G-agarose beads for 3 h at 4° C. After several washes, the beads were resuspended in 2×SDS sample buffer [4% sodium dodecyl sulfate (SDS), 100 mM Tris-HCl (pH 6.8), 10% b-mercaptoethanol, 20% glycerol and 0.2% bromophenol blue] and boiled for 10 min. The resulting proteins were separated by SDS-PAGE, and transferred to polyvinylidene difluoride membranes for immunoblotting using previously described protocols.
Because the p-p53Δ and p-p53 bands were very close in immunoblots and the former was the predominant band, p-p53Δ levels were used as an index of p-p53 degradation. Immunoprecipitation was used to determine whether p-p53 truncation affected its association with the microtubule-associated protein tau, a protein that is abundantly and exclusively expressed in axons. p53 labeled by either anti-p-p53 or anti-p53 antibodies was immunoprecipitated by Tau1 antibodies (FIG. 5B).
Increased levels of p-p53Δ and p-Mdm2 were quantified using the ImageJ program (National Institutes of Health, Bethesda, Md.). The quantified levels are contained in Table 1 below.
For orientation: In western blotting, separated proteins are transferred to a membrane and probed.

Data set [2] has as its system hippocampal neurons cultured from wild-type mice. Briefly: Quantification of growth cone collapse in cultured neurons from wild-type mice (U18666A-induced). It counts as cell-based. The protocol:
as §1, §2
(§3) Immunofluorescent staining. Hippocampal neurons were fixed with 4% paraformaldehyde in phosphate buffer (PB; pH 7.4) for 15 min. After washing with 1× phosphate buffer saline (PBS), cells were permeabilized with 0.05% Triton X-100 in 1×PBS for 15 min, and incubated with blocking buffer (3% BSA, 0.02% Triton X-100 in 1×PBS) for 15 min before being probed with primary antibodies. The following primary antibodies were used: anti-E6AP (1:1000), anti-phospho-p53 (1:250), anti-phospho-4EBP1 (1:1000), antiphospho-Mdm2 antibody (1:250), anti-phospho-p38 antibody (1:250), anti-RhoA antibody (1:1500). All primary antibodies were diluted in blocking buffer and incubated at 4° C. for 18 h. After six washes (6×10 min) with 1×PBS at room temperature, cells were incubated with secondary antibodies, Alexa488-anti-rabbit (1:500) or Alexa594-anti-mouse (1:500); both antibodies were diluted in blocking buffer and incubated at room temperature for one h. Cells were then washed with 1×PBS (6×10 min) and sealed with mounting medium (Vectashield; Vector Laboratories, Inc., Burlingame, Calif.) containing 49,69-diamidino-2-phenylindole (DAPI) to stain nuclei. Immunofluorescent signal was detected with a Nikon confocal microscope (Nikon TE 2000U with DEclipse C1 system; Melville, N.Y.).
(§4) Quantification of growth cone morphology and immunoreactivity. Confocal images were taken using the 60× oil-immersion objective. About 20-30 images were randomly selected from each culture dish (20 mm in diameter); at least four to six dishes from three to six independent culture preparations/experiments were used for each experimental group. Within an experiment, cultures used for different experimental groups and designed for comparison were stained simultaneously and imaged with the same acquisition parameters. Quantification was done blindly by multiple researchers. Growth cones with less than 1 filopodium were considered collapsed; 100 growth cones were-quantified for each experimental group. Image J software was used to quantify immunoreactivity intensity of p-p53 and RhoA in axons and growth cones; the “total integrated density” was used instead of “average intensity”. Briefly, individual growth cones were outlined manually and the total integrated density was measured using Image J software. For quantification of immunoreactivity in axons, a 50 μm fragment of axons from the neck of growth cones towards the cell body was selected and integrated density measured.

Data set [3] has as its system axons and growth cones of hippocampal neurons from wild-type mice. The data set can be described thus: Immunofluorescence quantification of protein levels in axons and growth cones of wild-type hippocampal neurons. It counts as cell-based. The protocol:
as §1, §2, §3, §4

The next data set has as its system npc1−/− mice. The data set can be described thus: In vivo ROCK inhibition in developing npc1−/− mice, immunohistochemistry of brain sections. Conditions: 10 mg/kg subcutaneously twice a day, postnatal day 7 to 28. Here is the method:
Animals. A breeding colony of Npc1″ heterozygous mice that were on a BALB/c background (Jackson Laboratory, Bar Harbor, Me.) was established in order breed wild type (npc+/+) and npc1−/− mice. The genotype of the mice was determined by employing a polymerase chain reaction (PCR)-based method as described in reference. The Institutional Animal Care and Use Committee (IACUC) of Western University of Health Sciences approved the care and experimental protocols that these examples describe. The National Institutes of Health Guide for the Care and Use of Laboratory Animals and Animal Husbandry governed the use of animals by the inventors.
as §2
Perfusion and Immunohistochemistry. Mice were perfused with freshly prepared 4% paraformaldehyde in 1×PBS. Brains were then removed and post-fixed in 4% paraformaldehyde for 16 h followed by incubation with graded sucrose solutions. Brains were sectioned into 30 μm coronal sections with a microtome. Floating sections were processed for immunostaining as described previously. Briefly, sections were incubated with rabbit anti-p-p53 (1:250) and mouse anti-pan axonal neurofilament (SMI-312, 1:500; Covance) antibodies in 5% horse serum diluted in 0.1M PB overnight at 4° C. […] Quantification of p-p53 and neurofilament immunoreactivity in fasciculated bundles in the striatum was performed by using NIH ImageJ software. […] Analyzed area consisted of 450 μm×420 μm that was taken from two sections per mouse; three different mice were used for each experimental group. Means of integrated density and areas were quantified and expressed as percentage of values from npc1+/+ mice.

The conditions of data set [4]: reference [26]; cited from earlier work.
[5] abbreviates: wild-type cortical neurons treated with pifithrin-μ.
The mark [6] stands for this setting: immunohistochemical analysis, mean±SEM, n=25-40, Mdm2 inhibitor 1 μM.
Where [7] appears, read: 1 μM SB203580 pre-treatment, immunohistochemistry.

Where a name gives a salt, the structure may show the parent alone.

For the compound `NS(=O)(=O)C#Cc1ccccc1` [pifithrin-μ], in data set [1] (setting [5]), the “levels of RhoA and p-LIMK (immunoblot)” value was “rapid increase”; the “levels of p-4EBP1” value is given as “increased”.
As to `Bc1ccc(C(=O)/C=C/c2ccc(I)cc2)cc1` [Mdm2-In, trans-4-Iodo, 49-boranyl-chalcone], in data set [1], the “RhoA level (immunoblot)” value was found to be 105 ± 1, the “Ubiquitin level (immunoblot)” value was 102 ± 5, the “p-4EBP1 level (immunoblot)” value came to 104 ± 2 and the “p-LIMK level (immunoblot)” value is 117 ± 6. For the same compound, in data set [1], the “p-Mdm2 level (immunoblot)” value came to 100 ± 4, the “p-p38 level (immunoblot)” value was 108 ± 17, the “p-p53Δ level (immunoblot)” value is 106 ± 2 and the “t-p38 level (immunoblot)” value was 104 ± 0. In data set [1], the “t-p53 level (immunoblot)” value was determined as 104 ± 1. Besides, in data set [2] (pretreatment with 1 μM Mdm2-in, n=100 growth cones), the “effect on U18666A-induced growth cone collapse” value is “significantly reduced”. The “effect on U18666A-induced decrease in p-p53 levels in axons and growth cones” value in data set [3] (Mdm2 inhibitor pre-treatment (1 μM), n=25-40 neurons) is on record as “significantly reduced”. Further, in data set [3] (setting [6]), the “RhoA levels in axons, percentage of control vehicle-treated neurons” value stood at 102±15% and the “RhoA levels in growth cones, percentage of control vehicle-treated neurons” value was 136±20%.
As for `Cc1cncc2cccc(S(=O)(=O)N3CCCNC[C@@H]3C)c12.Cl.Cl` [H 1152, (S)-(+)-2-Methyl-1-[(4-methyl-5-isoquinolinyl)sulfonyl]-hexahydro-1H-1,4-diazepine dihydrochloride], the “effect on U18666A-induced growth cone collapse” value in data set [2] (pre-treatment with 100 nM H 1152 for 3 h, then 5 μM U18666A for 2 min) is reported as “blocked”. Also, the “effect on U18666A-induced decrease in p-p53 immunoreactivity” value in data set [3] (100 nM H 1152 for 3 h, then 5 μM U18666A 2 min) is “blocked”.
Take `O=c1[nH]ccc2c(S(=O)(=O)N3CCCNCC3)cccc12` [hydroxyfasudil monohydrochloride]: in the data set with npc1−/− mice, the SMI-312-immunopositive areas entry is given as “significantly increased”; the “number of axonal neurofilaments (SMI-312 staining), especially corpus callosum and striatum” value is reported as “increased”; the “p-p53 immunoreactivity in brain sections” value is “increased”. In data set [4], the blood-brain-barrier crossing result was “cross the blood-brain-barrier” and the ischemia-induced brain damage entry is “reduce ischemia-induced brain damage”.
Turning to `CC[C@H]1CN2CCc3cc(OC)c(OC)cc3[C@@H]2C[C@@H]1C[C@H]1NCCc2cc(OC)c(OC)cc21` [emetine], in data set [1] (emetine pretreatment), the “effect on U18666A-induced phosphorylation of LIMK” value is “significantly reduced”; the “effect on pifithrin-μ-induced increase in RhoA and p-LIMK” value was “blocked”. Also, in data set [1] (emetine treatment), the “effect on U18666A-induced changes in levels of p-Mdm2, p-p38 and p-p53Δ” value is recorded as “did not affect”. The “effect on U18666A-induced increase in RhoA levels” value in data set [1] (pre-treatment with emetine) was “significantly reduced”. The “effect on U18666A-induced growth cone collapse” value in data set [2] (emetine pretreatment, FIG. 15C legend: cortical neurons, n=100 growth cones) is given as “significantly reduced”.
As to `C[S+]([O-])c1ccc(-c2nc(-c3ccncc3)c(-c3ccc(F)cc3)[nH]2)cc1` (stereo not drawn) [SB203580], in data set [1], the “RhoA level (immunoblot)” value is listed as 96 ± 0, the “Ubiquitin level (immunoblot)” value worked out at 95 ± 7, the “p-4EBP1 level (immunoblot)” value amounted to 99 ± 3 and the “p-LIMK level (immunoblot)” value is listed as 100 ± 3. In data set [1], the “p-Mdm2 level (immunoblot)” value stood at 92 ± 1, the “p-p38 level (immunoblot)” value stood at 96 ± 24, the “p-p53Δ level (immunoblot)” value is 94 ± 6 and the “t-p38 level (immunoblot)” value was 99 ± 5. In addition, in data set [1], the “t-p53 level (immunoblot)” value came to 107 ± 2. Besides, the “effect on U18666A-induced growth cone collapse” value in data set [2] (preincubation with 1 μM SB203580 for 2 h before U18666A) is listed as “significantly reduced”. For the same compound, in data set [3] (setting [7]), the “effect on U18666A-induced RhoA increase in axons and growth cones” value is “blocking effects”; the “effect on U18666A-induced p-p53 truncation in axons and growth cones” value is recorded as “blocking effects”.

Source of the values: US20120010196A1, “METHODS OF TREATING NEURODEGENERATIVE DISORDERS AND DISEASES” (priority 2010, published 2012).
